# Assay results reported in US20200405666A9, “TREATMENT OF SYMPTOMS ASSOCIATED WITH FEMALE GASTROPARESIS” (priority 2011, published 2020).
# Test system: symptoms of diabetic gastroparesis
# Assay: Phase 2 randomized, double-blind, placebo-controlled study METO-IN-002 of metoclopramide nasal spray: symptom scores (mGCSI-DD, GCSI-DD, PAGI-SYM, other endpoints)
# Type: in vivo, human
# Design: key to Stomach Fullness / Early Satiety / Feeling Full / Loss of Appetite / Bloating / Stomach Larger / Upper Abdominal Pain / Upper Abdominal Discomfort / mGCSI-DD (primary endpoint) / Nausea / Retching / Vomiting / Sheehan Disability Scales / Investigator Assessment of Overall Gastroparesis Severity / Subject Assessment of Overall Gastroparesis Severity / Investigator Assessment of Overall Treatment Effect / Subject Assessment of Overall Treatment Effect / Days w/o Vomiting / Days w/o Nausea / Days w/o Vomiting or Nausea / Days w/o Upper Abdominal Pain or Upper Abdominal Discomfort / Nausea Response by Response Threshold / GCSI-DD / Days w/o Vomiting or Retching &, No Use of Rescue Medication / Nausea Responder Analysis / Overall Severity of Gastroparesis Symptoms - Subject / PAGI-SYM Questionnaire / Nausea/Vomiting (listed under PAGI-SYM Questionnaire) / Bloating (listed under PAGI-SYM Questionnaire) / Upper Abdominal Pain/Discomfort (listed under PAGI-SYM Questionnaire) / Early Satiety (listed under PAGI-SYM Questionnaire): A=Favors Active; P=Favors Placebo
# Settings: for mGCSI-DD (primary endpoint) / Bloating / Bloating (listed under PAGI-SYM Questionnaire) / Days w/o Nausea / Days w/o Upper Abdominal Pain or Upper Abdominal Discomfort / Days w/o Vomiting / Days w/o Vomiting or Nausea / Days w/o Vomiting or Retching &, No Use of Rescue Medication / Early Satiety / Early Satiety (listed under PAGI-SYM Questionnaire) / Feeling Full / GCSI-DD / Investigator Assessment of Overall Gastroparesis Severity / Investigator Assessment of Overall Treatment Effect / Loss of Appetite / Nausea / Nausea Responder Analysis / Nausea Response by Response Threshold / Nausea/Vomiting (listed under PAGI-SYM Questionnaire) / Overall Severity of Gastroparesis Symptoms - Subject / PAGI-SYM Questionnaire / Retching / Sheehan Disability Scales / Stomach Fullness / Stomach Larger / Subject Assessment of Overall Gastroparesis Severity / Subject Assessment of Overall Treatment Effect / Upper Abdominal Discomfort / Upper Abdominal Pain / Upper Abdominal Pain/Discomfort (listed under PAGI-SYM Questionnaire) / Vomiting: Week 4, vs placebo
# Description: Example 1: A Multicenter, Randomized, Double-Blind, Placebo-Controlled, Parallel Group, Dose-Ranging Clinical Study to Evaluate the Efficacy and Safety of Metoclopramide Nasal Spray Solution in Diabetic Subjects with Gastroparesis
# The objectives of this study were to evaluate the safety and the effectiveness of two doses of metoclopramide nasal spray solution, 10 mg and 14 mg, compared to placebo in reducing the symptoms of diabetic gastroparesis and to assess the plasma concentrations of two doses of metoclopramide nasal spray in subjects with diabetic gastroparesis following a single dose and at steady state. The aforementioned dosages for the treatment and control of gastroparesis were administered before meals and/or before bed time. Subjects who met the entry criteria after the Washout Period (Day −7 to Day −1) were randomized using an IVRS, to metoclopramide nasal spray 10 mg, 14 mg, or placebo, in roughly equal numbers (approximately 1:1:1) using a predetermined randomization schedule employing permuted blocks. Randomization was preformed centrally.
# Metoclopramide nasal spray solution, 200 mg/mL base (as monohydrochloride monohydrate) is a clear colorless to pale-yellow aqueous solution manufactured for Evoke Pharma. The metoclopramide nasal spray was packaged in a 10 mL amber glass vial mounted with a metered nasal spray pump. The metered dose vial delivered a 50 μL or 70 μL spray (10 mg or 14 mg of metoclopramide base respectively) with each actuation. One 10 mL vial contained sufficient metoclopramide nasal spray to deliver 120 doses of 10 mg or 14 mg.
# A vehicle control was used as the placebo for metoclopramide nasal spray solution. The placebo spray was packaged in a 10 mL amber glass vial mounted with a metered nasal spray pump. The metered dose vial delivered a 50 μL spray with each actuation. One 10 mL vial contained sufficient placebo to deliver 120 doses. The delivery of either a 50 μL or 70 μL spray is indistinguishable to the subject or study staff.
# A 7-day Washout Period preceded randomization. During this time, and for the duration of the study, subjects were asked to discontinue use of all medications that are known to ameliorate or exacerbate symptoms associated with diabetic gastroparesis. Subjects were trained on the use of an interactive voice response system (IVRS) to record the severity of nine gastroparesis symptoms of the GCSI-DD and additional symptoms such as: severity of abdominal pain and abdominal discomfort, number of hours of nausea, number of episodes of vomiting, and overall severity of gastroparesis symptoms in a daily diary. The IVRS was used during the treatment period for self-reported assessments. Subjects completed these diary assessments via the IVRS each evening.
# Subjects with a mean GCSI-DD total score of <2.0 or >4.0 during the 7-day Washout Period were excluded from the study.
# At the Randomization Visit (Day 0), the Patient Assessment of Upper Gastrointestinal Disorders Symptoms (PAGI-SYM) Questionnaire, and disability questionnaires were administered to the subject and the Investigator and subject assessed overall gastroparesis symptom severity (OGS) prior to taking study drug. Subjects began taking the study drug at the clinical site with a single dose on Day 0. The subjects returned to the clinic for safety and efficacy evaluations on Visits 4, 5, 6, and 7 (Days 7, 14, 21, and 28).
# At each scheduled study visit to the clinical study site, the IVRS daily diary compliance was reviewed. In addition, at Visit 5 (Day 14), the PAGI-SYM Questionnaire was administered to the subject and the Investigator and subject assessed OGS severity. At the Final Visit (Day 28) subjects took their last dose of study drug at the clinical site and returned their vial of unused/remaining study drug. The subject completed the PAGI-SYM, and disability questionnaires. The Investigator and subject assessed OGS and overall treatment effect (OTE). […]
# [1] = males, 10 mg IN four times daily
# [2] = males, 10 mg IN four times daily, listed as Metoclopramide
# [3] = males, 14 mg IN four times daily
smiles,measurement,setting,value
"CCN(CC)CCNC(=O)c1cc(Cl)c(N)cc1OC [metoclopramide, -amino-5-chloro-N-(2-(diethylamino)ethyl)-2-methoxybenzamide]",mGCSI-DD (primary endpoint),"females, 14 mg IN four times daily",A (p < 0.05)
same,Mean mGCSI-DD total score at Week 4,"females, 14 mg IN four times daily, listed as Metoclopramide",1.7
same,"Difference of Least Square Means, mGCSI-DD change from Baseline to Week 4","females, 14 mg IN vs Metoclopramide 10 mg",−0.00
same,"Difference of Least Square Means, mGCSI-DD change from Baseline to Week 4","females, 14 mg IN vs placebo",−0.38
same,Symptoms that showed a positive trend,"male subjects, 11 symptoms collected",1 of 11
same,Statistically significant improvement in mGCSI-DD score (in words),"males, 10 mg IN and 14 mg IN arms, Baseline to Week 4",did not experience significant improvement
same,Mean Change from Baseline to Week 4 in mGCSI-DD,[1],−1.2 (−1.2)
same,Mean mGCSI-DD total score at Week 4,[1],1.6 (1.6)
same,Bloating,[1],P
same,Bloating (listed under PAGI-SYM Questionnaire),[1],P
same,Days w/o Nausea,[1],P
same,Days w/o Upper Abdominal Pain or Upper Abdominal Discomfort,[1],P
same,Days w/o Vomiting,[1],P
same,Days w/o Vomiting or Nausea,[1],P
same,"Days w/o Vomiting or Retching &, No Use of Rescue Medication",[1],A
same,Early Satiety,[1],P
same,Early Satiety (listed under PAGI-SYM Questionnaire),[1],P
same,Feeling Full,[1],P
same,GCSI-DD,[1],P
same,Investigator Assessment of Overall Gastroparesis Severity,[1],P
same,Investigator Assessment of Overall Treatment Effect,[1],A
same,Loss of Appetite,[1],P
same,Nausea,[1],P
same,Nausea Responder Analysis,[1],P
same,Nausea Response by Response Threshold,[1],P
same,Nausea/Vomiting (listed under PAGI-SYM Questionnaire),[1],P
same,Overall Severity of Gastroparesis Symptoms - Subject,[1],A
same,PAGI-SYM Questionnaire,[1],P
same,Retching,[1],P
same,Sheehan Disability Scales,[1],A
same,Stomach Fullness,[1],P
same,Stomach Larger,[1],P
same,Subject Assessment of Overall Gastroparesis Severity,[1],P
same,Subject Assessment of Overall Treatment Effect,[1],A
same,Upper Abdominal Discomfort,[1],P
same,Upper Abdominal Pain,[1],P
same,Upper Abdominal Pain/Discomfort (listed under PAGI-SYM Questionnaire),[1],P
same,Vomiting,[1],A
same,mGCSI-DD (primary endpoint),[1],P
same,Mean Change from Baseline to Week 4 in mGCSI-DD,[2],−1.2
same,Mean mGCSI-DD total score at Week 4,[2],1.6
same,"Difference of Least Square Means, mGCSI-DD change from Baseline to Week 4","males, 10 mg IN vs placebo",0.18
same,Mean Change from Baseline to Week 4 in mGCSI-DD,[3],−0.9
same,Mean mGCSI-DD total score at Week 4,[3],1.7 (1.7)
same,Bloating,[3],P
same,Bloating (listed under PAGI-SYM Questionnaire),[3],P (p < 0.05)
same,Days w/o Nausea,[3],P
same,Days w/o Upper Abdominal Pain or Upper Abdominal Discomfort,[3],P (p < 0.05)
same,Days w/o Vomiting,[3],P
same,Days w/o Vomiting or Nausea,[3],P
same,"Days w/o Vomiting or Retching &, No Use of Rescue Medication",[3],A
same,Early Satiety,[3],P (p < 0.05) and P
same,Early Satiety (listed under PAGI-SYM Questionnaire),[3],P (p < 0.05)
same,Feeling Full,[3],P
same,GCSI-DD,[3],P
same,Investigator Assessment of Overall Gastroparesis Severity,[3],P
same,Investigator Assessment of Overall Treatment Effect,[3],P
same,Loss of Appetite,[3],P (p < 0.05)
same,Nausea,[3],P
same,Nausea Responder Analysis,[3],P
same,Nausea Response by Response Threshold,[3],P
same,Nausea/Vomiting (listed under PAGI-SYM Questionnaire),[3],P
same,Overall Severity of Gastroparesis Symptoms - Subject,[3],A
same,PAGI-SYM Questionnaire,[3],P
same,Retching,[3],P
same,Sheehan Disability Scales,[3],A
same,Stomach Fullness,[3],P
same,Stomach Larger,[3],P (p < 0.05)
same,Subject Assessment of Overall Gastroparesis Severity,[3],P
same,Subject Assessment of Overall Treatment Effect,[3],P
same,Upper Abdominal Discomfort,[3],P
same,Upper Abdominal Pain,[3],P
same,Upper Abdominal Pain/Discomfort (listed under PAGI-SYM Questionnaire),[3],P
same,Vomiting,[3],A
same,mGCSI-DD (primary endpoint),[3],P
same,Mean mGCSI-DD total score at Week 4,"males, 14 mg IN four times daily, listed as Metoclopramide",1.7
same,"Difference of Least Square Means, mGCSI-DD change from Baseline to Week 4","males, 14 mg IN vs Metoclopramide 10 mg",0.14
same,"Difference of Least Square Means, mGCSI-DD change from Baseline to Week 4","males, 14 mg IN vs placebo",0.32
